Experimental findings from US8124764B2, “Fused heterocyclyc inhibitor compounds” (Gilead Sciences, Inc., priority 2008, dated 2012) are described below.

One assay has as its target HDAC 1 (Homo sapiens, UniProt Q13547). Put plainly: HDAC 1 inhibition assay with about 3 hours enzyme/compound preincubation (fluorophore/quencher peptide substrate). Type of assay: biochemical. Particulars: 3-hour preincubation of enzyme with compound; read-out: HDAC 1 inhibitory activity (IC50 [μM]) (3-hour preincubation).
Another assay deals with CDK2 (Homo sapiens, UniProt P24941). Put plainly: CDK2 inhibition. It counts as biochemical.

Chain of HDAC 1 (Q13547 whole entry, species assumed): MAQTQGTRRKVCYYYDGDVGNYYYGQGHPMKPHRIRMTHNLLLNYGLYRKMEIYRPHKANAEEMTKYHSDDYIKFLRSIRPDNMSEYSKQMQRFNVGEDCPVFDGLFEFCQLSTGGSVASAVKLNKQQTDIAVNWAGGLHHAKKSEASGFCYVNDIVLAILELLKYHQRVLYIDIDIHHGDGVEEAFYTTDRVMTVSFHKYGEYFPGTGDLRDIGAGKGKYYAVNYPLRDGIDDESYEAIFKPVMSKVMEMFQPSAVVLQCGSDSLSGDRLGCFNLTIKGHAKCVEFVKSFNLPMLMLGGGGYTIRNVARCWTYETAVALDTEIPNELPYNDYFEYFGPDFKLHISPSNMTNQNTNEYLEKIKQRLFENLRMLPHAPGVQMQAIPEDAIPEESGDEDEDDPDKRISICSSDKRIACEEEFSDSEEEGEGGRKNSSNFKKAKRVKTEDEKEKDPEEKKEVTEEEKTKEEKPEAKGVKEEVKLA

Regarding `COc1ccc2nc(C)c(-c3ccnc(Nc4ccc(C(=O)Nc5ccccc5N)cc4)n3)n2c1` [Example 42, N-(2-Amino-phenyl)-4-[4-(6-methoxy-2-methyl-imidazo[1,2-a]pyridin-3-yl)-pyrimidin-2-ylamino]-benzamide], the values for the IC50 at HDAC 1 and against CDK2 were 0.388 µM and 0.29 µM, respectively.

On to `Nc1ccccc1NC(=O)c1ccc(Nc2cc(-c3cnc4ccccn34)ncn2)cc1` [Example 55, N-(2-Amino-phenyl)-4-(6-imidazo[1,2-a]pyridin-3-yl-pyrimidin-4-ylamino)-benzamide], for which the half-inhibitory concentration (IC50) at HDAC 1 is 0.2 µM; on CDK2 it was more than 40 µM.

As to `COc1ccn2c(-c3ccnc(Nc4ccc(C(=O)Nc5ccccc5N)cc4)n3)c(C)nc2c1` [Example 14, N-(2-Amino-phenyl)-4-[4-(7-methoxy-2-methyl-imidazo[1,2-a]pyridin-3-yl)-pyrimidin-2-ylamino]-benzamide], the results for the concentration for half-maximal inhibition (IC50) on HDAC 1 and at CDK2 were approximately 0.09 µM and 0.06 µM, respectively.

As to `COCCNC(=O)c1ccc2nc(C)c(-c3ccnc(Nc4ccc(C(=O)Nc5ccccc5N)cc4)n3)n2c1` [Example 38, 3-(2-(4-(2-aminophenylcarbamoyl)phenylamino)pyrimidin-4-yl)-N-(2-methoxyethyl)-2-methylimidazo[1,2-a]pyridine-6-carboxamide], the IC50 at HDAC 1 amounted to 0.312 µM; at CDK2 it was 2.74 µM.

As for `Cc1nc2cc(N3CCOCC3)ccn2c1-c1ccnc(Nc2ccc(C(=O)Nc3ccccc3N)cc2)n1` [Example 23, N-(2-Amino-phenyl)-4-[4-(2-methyl-7-morpholin-4-yl-imidazo[1,2-a]pyridin-3-yl)-pyrimidin-2-ylamino]-benzamide], the half-inhibitory concentration (IC50) at HDAC 1 was found to be 5.29 µM; against CDK2 it was 0.67 µM.

As to `COc1ccn2c(-c3ccnc(Nc4ccc(C(=O)NO)cc4)n3)c(C)nc2c1` [Example 13, N-Hydroxy-4-[4-(7-methoxy-2-methyl-imidazo[1,2-a]pyridin-3-yl)-pyrimidin-2-ylamino]-benzamide], the half-inhibitory concentration (IC50) on HDAC 1 and against CDK2 was 0.04 µM throughout.

Regarding `Nc1ccccc1NC(=O)c1ccc(Nc2nccc(-c3c(C(F)(F)F)nc4ccccn34)n2)cc1` [Example 16, N-(2-Amino-phenyl)-4-[4-(2-trifluoromethyl-imidazo[1,2-a]pyridin-3-yl)-pyrimidin-2-ylamino]-benzamide], the IC50 stood at 0.295 µM at HDAC 1 and 0.16 µM on CDK2.

For `COc1ccc2nc(C)c(-c3ccnc(Nc4ccc(C(=O)NO)cc4)n3)n2c1` [Example 43, N-Hydroxy-4-[4-(6-methoxy-2-methyl-imidazo[1,2-a]pyridin-3-yl)-pyrimidin-2-ylamino]-benzamide], the IC50 on HDAC 1 is 0.14 µM; at CDK2 it was 0.08 µM.

Broadly, the IC50 is the concentration at which inhibition is half-maximal.
